One compound from ChEMBL document CHEMBL5032530, “Discovery of Benzocyclic Sulfone Derivatives as Potent CXCR2 Antagonists for Cancer Immunotherapy” (J Med Chem, 2021) can be followed below.

SMILES strings stand for the structures. Calls of active or inactive are those of the source. No cut-off for these calls is given here.

Data set [1] addresses C-C chemokine receptor type 6 (Homo sapiens) (UniProt P51684). Briefly: Antagonist activity against CCR6 (unknown origin) assessed as inhibition of beta-arrestin 2 recruitment at 10 microM by beta arrestin assay relative to control. The class given is functional. Details: scale not given: the % may be the effect or the level left. Background: Recruitment of arrestin is a read-out of receptor activation apart from second messengers.

Data set [2] in a line: Apparent volume of distribution in ICR mouse at 30 mg/kg, po measured upto 48 hrs. It is filed as ADME, organism-based. The settings on record: in vivo.
Data set [3] addresses C-C chemokine receptor type 5 (Homo sapiens) (UniProt P51681). The data set is described as follows: Antagonist activity against CCR5 (unknown origin) assessed as inhibition of beta-arrestin 2 recruitment at 10 microM by beta arrestin assay relative to control. Details: scale not given: the % may be the effect or the level left. It is filed as functional.
Data set [4] is described as follows: Apparent volume of distribution in ICR mouse at 3 mg/kg, iv measured upto 48 hrs. It is filed as ADME, organism-based. The settings on record: in vivo, read-out: Vz.
In data set [5] the target is C-C chemokine receptor type 1 (Homo sapiens) (UniProt P32246). Briefly: Antagonist activity against CCR1 (unknown origin) assessed as inhibition of beta-arrestin 2 recruitment at 10 microM by beta arrestin assay relative to control. It is filed as functional. More on the design: scale not given: the % may be the effect or the level left. The settings on record: filed as antagonist.
Sequence of C-C chemokine receptor type 1 (Homo sapiens) (P32246 whole entry): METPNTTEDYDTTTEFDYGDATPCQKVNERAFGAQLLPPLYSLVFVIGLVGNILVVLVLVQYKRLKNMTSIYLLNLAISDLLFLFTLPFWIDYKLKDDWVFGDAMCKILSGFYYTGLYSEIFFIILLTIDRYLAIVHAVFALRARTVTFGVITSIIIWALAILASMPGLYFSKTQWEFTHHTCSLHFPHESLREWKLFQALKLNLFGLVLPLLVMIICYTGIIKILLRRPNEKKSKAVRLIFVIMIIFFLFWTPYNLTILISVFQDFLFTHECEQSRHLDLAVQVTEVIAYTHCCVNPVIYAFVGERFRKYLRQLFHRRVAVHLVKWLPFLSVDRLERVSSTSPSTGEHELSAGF

The nature of data set [6]: AUC (0 to infinity) in ICR mouse at 30 mg/kg, po measured upto 48 hrs. It is filed as ADME, organism-based. Details: route oral, dose 30 mg/kg, time <=48. The settings on record: ICR, in vivo.
The target of data set [7] is C-C chemokine receptor type 10 (Homo sapiens) (UniProt P46092). Briefly: Antagonist activity against CCR10 (unknown origin) assessed as inhibition of beta-arrestin 2 recruitment at 10 microM by beta arrestin assay relative to control. It is filed as functional. Details: scale not given: the % may be the effect or the level left.
Sequence of C-C chemokine receptor type 10 (Homo sapiens) (P46092 whole entry): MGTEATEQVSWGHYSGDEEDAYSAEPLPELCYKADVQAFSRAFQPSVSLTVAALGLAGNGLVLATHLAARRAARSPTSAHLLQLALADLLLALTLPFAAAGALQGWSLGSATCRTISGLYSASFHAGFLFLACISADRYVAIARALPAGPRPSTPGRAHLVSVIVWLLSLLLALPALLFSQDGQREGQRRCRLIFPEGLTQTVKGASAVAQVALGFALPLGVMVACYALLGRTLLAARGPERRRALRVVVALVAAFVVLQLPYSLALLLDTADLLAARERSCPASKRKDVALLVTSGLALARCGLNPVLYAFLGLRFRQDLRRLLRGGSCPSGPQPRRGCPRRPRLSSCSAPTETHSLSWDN
Data set [8] deals with Panc02. The data set is described as follows: Antitumour activity against mouse Panc02 cells xenografted in mouse assessed as tumour growth inhibition at 10 mg/kg, po bid […]. The class given is functional. The settings on record: read-out: TGI.
The test system of a further data set is Mus musculus. The data set is described as follows: Effect on granulocytic MDSCs level in mouse xenografted with […] cells at 10 to 30 mg/kg, po bid measured after 15 days by immunohistochemical analysis. It is filed as ADME, organism-based. The settings on record: in vivo, 360 h, dose 10-30 mg/kg, time 15 day.
A short description of data set [9]: Cmax in ICR mouse at 3 mg/kg, iv measured upto 48 hrs. The settings on record: in vivo. More on the design: route intravenous, dose 3 mg/kg, time <=48. It is filed as ADME, organism-based.
For data set [10], the target named is C-X-C chemokine receptor type 1 (Homo sapiens) (UniProt P25024). The data set is described as follows: Antagonist activity against CXCR1 (unknown origin) assessed as inhibition of beta-arrestin 2 recruitment at 10 microM by beta arrestin assay relative to control. It is filed as functional. More on the design: scale not given: the % may be the effect or the level left.
Sequence of C-X-C chemokine receptor type 1 (Homo sapiens) (P25024 whole entry): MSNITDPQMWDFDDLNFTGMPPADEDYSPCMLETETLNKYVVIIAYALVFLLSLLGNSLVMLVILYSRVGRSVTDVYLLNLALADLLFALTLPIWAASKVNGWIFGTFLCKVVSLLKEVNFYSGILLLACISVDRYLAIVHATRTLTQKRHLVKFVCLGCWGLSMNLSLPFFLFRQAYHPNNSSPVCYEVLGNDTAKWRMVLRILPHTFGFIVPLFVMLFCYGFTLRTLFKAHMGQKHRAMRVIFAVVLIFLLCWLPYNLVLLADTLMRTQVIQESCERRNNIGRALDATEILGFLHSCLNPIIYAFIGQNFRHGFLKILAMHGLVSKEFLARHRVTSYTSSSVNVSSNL

Data set [11] deals with C-X-C chemokine receptor type 3 (Homo sapiens) (UniProt P49682). The data set is described as follows: Antagonist activity against CXCR3 (unknown origin) assessed as inhibition of beta-arrestin 2 recruitment at 10 microM by beta arrestin assay relative to control. It is filed as functional. More on the design: scale not given: the % may be the effect or the level left.
Sequence of C-X-C chemokine receptor type 3 (Homo sapiens) (P49682 whole entry): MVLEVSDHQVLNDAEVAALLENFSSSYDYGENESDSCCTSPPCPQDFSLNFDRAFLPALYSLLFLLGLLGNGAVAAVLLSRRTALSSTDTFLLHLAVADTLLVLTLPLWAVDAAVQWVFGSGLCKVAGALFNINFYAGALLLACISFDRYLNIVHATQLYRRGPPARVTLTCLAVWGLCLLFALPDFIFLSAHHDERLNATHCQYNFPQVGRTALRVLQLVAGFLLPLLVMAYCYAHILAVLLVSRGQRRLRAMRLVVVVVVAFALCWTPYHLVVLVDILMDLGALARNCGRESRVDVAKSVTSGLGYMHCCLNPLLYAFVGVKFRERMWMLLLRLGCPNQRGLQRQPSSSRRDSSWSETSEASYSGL
Data set [12] concerns Panc02. The data set is described as follows: Antitumour activity against mouse Panc02 cells xenografted in mouse assessed as reduction in infiltration of neutrophils into tumor tissue at 30 mg/kg, po bid measured after 15 days by immunohistochemical analysis. The class given is functional, organism-based. The following applies: time 15.0 day.
For data set [13], the system named is Panc02. Briefly: Antitumour activity against mouse Panc02 cells xenografted in mouse assessed as change in CD45 expressing immune cells infiltration into tumor tissue at 10 mg/kg, po bid measured after 15 days by flow cytometry analysis (reference value: 2.3%). The class given is functional. The settings on record: time 15 day.
The test system of data set [14] is Panc02. Briefly: Antitumour activity against mouse Panc02 cells xenografted in mouse assessed as change in CD11b expressing immune cells infiltration into tumor tissue using LY6C antibody at 10 mg/kg, po bid measured after 15 days by flow cytometry analysis (reference value: 20.5%). It is filed as functional. The settings on record: time 15 day. On the technique in general: Flow cytometry measures light scatter and fluorescence of single cells or particles in a stream.

Data set [15] deals with CX3C chemokine receptor 1 (Homo sapiens) (UniProt P49238). The data set is described as follows: Antagonist activity against CX3CR1 (unknown origin) assessed as inhibition of beta-arrestin 2 recruitment at 10 microM by beta arrestin assay relative to control. It is filed as functional. Details: scale not given: the % may be the effect or the level left.
Sequence of CX3C chemokine receptor 1 (Homo sapiens) (P49238 whole entry): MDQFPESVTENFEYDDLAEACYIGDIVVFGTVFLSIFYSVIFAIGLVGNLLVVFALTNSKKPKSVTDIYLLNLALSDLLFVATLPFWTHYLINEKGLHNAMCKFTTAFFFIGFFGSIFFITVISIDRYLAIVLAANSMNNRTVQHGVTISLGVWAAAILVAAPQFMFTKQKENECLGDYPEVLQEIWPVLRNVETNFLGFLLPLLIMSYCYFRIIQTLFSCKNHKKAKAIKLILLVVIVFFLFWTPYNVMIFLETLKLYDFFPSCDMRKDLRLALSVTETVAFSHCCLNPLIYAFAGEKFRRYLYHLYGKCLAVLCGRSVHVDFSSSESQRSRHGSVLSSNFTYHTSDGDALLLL

Sequence of C-C chemokine receptor type 5 (Homo sapiens) (P51681 whole entry, looked up): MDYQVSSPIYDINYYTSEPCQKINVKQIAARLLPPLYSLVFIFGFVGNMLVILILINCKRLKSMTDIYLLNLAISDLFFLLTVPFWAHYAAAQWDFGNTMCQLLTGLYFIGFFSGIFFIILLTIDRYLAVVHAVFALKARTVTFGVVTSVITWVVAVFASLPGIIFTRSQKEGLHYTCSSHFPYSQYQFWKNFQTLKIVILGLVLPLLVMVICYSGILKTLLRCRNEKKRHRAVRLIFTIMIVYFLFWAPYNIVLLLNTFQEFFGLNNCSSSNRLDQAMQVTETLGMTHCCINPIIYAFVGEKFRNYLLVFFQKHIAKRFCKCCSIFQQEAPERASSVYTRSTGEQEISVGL
Sequence of C-C chemokine receptor type 6 (Homo sapiens) (P51684 whole entry): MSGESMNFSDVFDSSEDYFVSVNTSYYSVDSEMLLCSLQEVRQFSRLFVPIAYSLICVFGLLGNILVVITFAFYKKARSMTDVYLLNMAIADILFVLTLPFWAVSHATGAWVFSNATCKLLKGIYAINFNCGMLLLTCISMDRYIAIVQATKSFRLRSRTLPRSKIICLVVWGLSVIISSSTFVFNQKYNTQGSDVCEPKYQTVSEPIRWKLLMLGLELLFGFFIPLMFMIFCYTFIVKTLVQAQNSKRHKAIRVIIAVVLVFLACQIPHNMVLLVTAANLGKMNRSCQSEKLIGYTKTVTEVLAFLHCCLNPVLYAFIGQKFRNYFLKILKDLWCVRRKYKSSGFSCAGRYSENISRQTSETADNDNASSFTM

The AUC(0-inf) is total exposure, with the tail of the curve extrapolated. What is called Cmax is the highest concentration seen after dosing. `Cc1c(F)cccc1NC(=O)Nc1ccc2c(c1O)S(=O)(=O)CCC2`: the Activity is less than 10% in data set [1]; less than 10% in data set [3]; 49% in data set [5]; less than 10% in [7]; “Non-Toxic” in the data set with Mus musculus; 33% in data set [10]. The Activity in [11] is less than 10%; in the data set with Panc02 [13], 30.3%; in the data set on Panc02 [14], 15.6%; in [15], less than 10%. In addition, the Vz in data set [2] was 939.87 L/kg. Further, in [4], the Vd stood at 49 L/kg. The compound further came in with an AUC(0-inf) in data set [6] of 229 ng·h/mL. For the same compound, the inhibition in vivo at 10 mg/kg in the data set on Panc02 [8] turned out to be 42.5%. This compound also gave a Cmax in [9] of 873 ng/mL. Besides, the result with Panc02 [12] was Active.
